{
  "source": "paper PMC7817009",
  "about": "“Structural analysis of rice Os4BGlu18 monolignol β-glucosidase” (PLoS ONE, 2021)",
  "molecular_target": "T1, Os4BGlu18 (Oryza sativa, UniProt Q7XSK0)",
  "T1 construct": "gene BGLU18; mature protein without predicted signal peptide (1-26); N-terminal thioredoxin-His6 tag cut with enterokinase, a few tag residues remain; residues 27-500 seen, last five (LHENQ) disordered",
  "T1 sequence (Q7XSK0 27-505)": "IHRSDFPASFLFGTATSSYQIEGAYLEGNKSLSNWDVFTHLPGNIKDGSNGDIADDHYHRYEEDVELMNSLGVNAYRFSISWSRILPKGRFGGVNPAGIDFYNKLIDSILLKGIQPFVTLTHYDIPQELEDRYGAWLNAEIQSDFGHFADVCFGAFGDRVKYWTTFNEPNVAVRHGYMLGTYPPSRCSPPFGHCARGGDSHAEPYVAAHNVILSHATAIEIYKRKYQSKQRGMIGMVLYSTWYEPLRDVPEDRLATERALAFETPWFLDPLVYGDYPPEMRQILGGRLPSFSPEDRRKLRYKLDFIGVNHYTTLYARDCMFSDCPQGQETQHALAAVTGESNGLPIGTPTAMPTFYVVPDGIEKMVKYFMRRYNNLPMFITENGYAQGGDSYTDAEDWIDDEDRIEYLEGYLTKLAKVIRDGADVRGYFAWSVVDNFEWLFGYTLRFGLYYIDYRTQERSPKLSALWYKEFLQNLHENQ",
  "test": "X-ray crystallography of soaked crystal, […] Å",
  "settings": "crystals soaked in 1 mM for 20 min, MES pH 6.0; glycone-binding active site (subsite -1)",
  "data": [
    {"smiles": "O=C1O[C@H](CO)[C@@H](O)[C@H](O)[C@H]1O", "note": "[DG, δ-gluconolactone]", "values": [
      {"measurement": "X-ray crystallography of soaked crystal, 2.1 Å", "value": "could be observed in the active site pocket"}
    ]}
  ]
}
